Measured values reported in patent publication US20240002388A1, “PYRIMIDINONE COMPOUNDS AND USES THEREOF” (HUTCHISON MEDIPHARMA LIMITED, priority 2020, published 2024).

Target: RIPK1 recombination protein (Homo sapiens (Human), UniProt Q13546)
Assay: RIPK1 kinase activity assay (ADP-Glo)
Type: biochemical
Settings: RIPK1 kinase activity, ADP-Glo, 10 μM ATP
Summary of the method: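 GST-purified recombinant human RIPK1 (40 nM final) with 10 μM ATP in NaCl/MgCl2/BSA/CHAPS/DTT kinase buffer, 3 h at room temperature; compounds at 10 to 0.005 μM (3-fold). ADP formed measured by ADP-Glo luminescence; inhibition normalized to no-enzyme and no-inhibitor controls, IC50 by curve fit.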

RIPK1 recombination protein, sequence (Q13546 other isoform, or with tags, fused parts or gaps): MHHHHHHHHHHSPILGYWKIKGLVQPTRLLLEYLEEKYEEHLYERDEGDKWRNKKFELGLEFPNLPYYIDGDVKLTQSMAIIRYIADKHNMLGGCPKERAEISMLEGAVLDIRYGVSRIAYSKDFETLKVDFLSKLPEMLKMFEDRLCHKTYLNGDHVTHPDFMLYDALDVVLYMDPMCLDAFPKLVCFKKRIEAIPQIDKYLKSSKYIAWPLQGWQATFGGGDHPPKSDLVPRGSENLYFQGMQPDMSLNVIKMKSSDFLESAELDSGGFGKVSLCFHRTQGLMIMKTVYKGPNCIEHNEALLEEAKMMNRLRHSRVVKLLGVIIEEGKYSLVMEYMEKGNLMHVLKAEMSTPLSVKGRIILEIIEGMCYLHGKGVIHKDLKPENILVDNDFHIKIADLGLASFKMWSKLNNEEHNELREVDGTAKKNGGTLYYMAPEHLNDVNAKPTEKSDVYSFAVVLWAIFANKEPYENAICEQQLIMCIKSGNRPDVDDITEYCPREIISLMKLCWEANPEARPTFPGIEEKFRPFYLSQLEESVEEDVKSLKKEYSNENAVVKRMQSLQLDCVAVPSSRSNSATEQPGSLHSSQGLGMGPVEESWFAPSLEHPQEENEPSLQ

Compound	IC50
Cn1cncc(-c2ccc(C3(NC(=O)c4ncc5cnn(-c6ccccc6)c5n4)CC3)cc2)c1=O [Compound 4]	26 nM
CC(C)n1ncc2cnc(C(=O)NC3(c4ccc(-c5cncn([C@H]6C[C@@H]6F)c5=O)cc4)CC3)nc21 [Compound 67]	49 nM
Cn1cncc(-c2ccc(C3(NC(=O)c4nnc(Cc5ccccc5)o4)CC3)cc2)c1=O [Compound 11]	38 nM
Cn1cncc(-c2ccc(C3(NC(=O)c4nnc(Cc5ccccc5)[nH]4)CC3)cc2)c1=O [Compound 3]	35 nM
CC(C)n1cncc(-c2ccc(C3(NC(=O)c4nnc(Cc5ccccc5)o4)CC3)cc2)c1=O [Compound 13]	22 nM
CC(C)n1cncc(-c2ccc(C3(NC(=O)c4ncc5cnn(C(C)C)c5n4)CC3)cc2)c1=O [Compound 29, 1-isopropyl-N-(1-(4-(1-isopropyl-6-oxo-1,6-dihydropyrimidin-5-yl)phenyl)cyclopropyl)-1H-pyrazolo[3,4-d]pyrimidine-6-carboxamide]	19 nM
CC(C)n1cncc(-c2ccc(C3(NC(=O)c4ncc5cnn(C6COC6)c5n4)CC3)cc2)c1=O [Compound 60]	59 nM
CC(C)Cn1cncc(-c2ccc(C3(NC(=O)c4ncc5cnn(C(C)C)c5n4)CC3)cc2)c1=O [Compound 45]	40 nM
CC(C)n1ncc2cnc(C(=O)NC3(c4cc(F)c(-c5cncn(CC6CC6)c5=O)cc4F)CC3)nc21 [Compound 94]	27 nM
CC(C#N)n1cncc(-c2ccc(C3(NC(=O)c4ncc5cnn(C(C)C)c5n4)CC3)cc2)c1=O (stereo in doubt) [Compound 82, (R)—N-(1-(4-(1-(1-cyanoethyl)-6-oxo-1,6-dihydropyrimidin-5-yl)phenyl)cyclopropyl)-1-i-propyl-1H-pyrazolo[3,4-d]pyrimidine-6-carboxamide]	51 nM
C[C@@H](n1cncc(-c2ccc(C3(NC(=O)c4ncc5cnn(CC6CC6)c5n4)CC3)c(F)c2)c1=O)C(F)(F)F [Compound 76]	51 nM
C[C@H](n1cncc(-c2ccc(C3(NC(=O)c4ncc5cnn(CC6CC6)c5n4)CC3)c(F)c2)c1=O)C(F)(F)F [Compound 71]	110 nM
CC(C)n1ncc2cnc(C(=O)NC3(c4ccc(-c5cncn([C@H](C)C(F)(F)F)c5=O)cc4F)CC3)nc21 (stereo in doubt) [Compound 46]	35 nM
CC(C)n1ncc2cnc(C(=O)NC3(c4ccc(-c5cnc(N)n(C)c5=O)cc4)CC3)nc21 [Compound 30]	35 nM
Cn1cncc(-c2ccc(C3(NC(=O)c4ncc(Cc5ccccc5)o4)CC3)cc2)c1=O [Compound 10]	26 nM
CC(C)n1ncc2cnc(C(=O)NC3(c4ccc(-c5cncn([C@@H](C)C(F)(F)F)c5=O)cc4)CC3)nc21 [Compound 40]	52 nM
CC(C)n1ncc2cnc(C(=O)NC3(c4ccc(-c5cncn(CC6(C)CC6)c5=O)cc4)CC3)nc21 [Compound 86]	14 nM
CC(C)n1cncc(-c2ccc(C3(NC(=O)c4ncc5cnn(-c6ccccc6)c5n4)CC3)cc2)c1=O [Compound 19]	71 nM
CC(C)n1ncc2cnc(C(=O)NC3(c4ccc(-c5cncn(CC6CC6)c5=O)cc4F)CC3)nc21 [Compound 74]	62 nM
CC(C)n1cncc(-c2ccc(C3(NC(=O)c4ncc5cnn(C(C)C)c5n4)CC3)cc2Cl)c1=O [Compound 33]	59 nM
CC(C)n1cncc(-c2ccc(C3(NC(=O)c4nc5n(n4)[C@@H](c4ccccc4)CC5)CC3)cc2)c1=O [Compound 15]	30 nM

Compound	IC50
CC(C)n1ncc2cnc(C(=O)NC3(c4ccc(-c5cncn(C6CC6)c5=O)cc4)CC3)nc21 [Compound 12]	9 nM
CC(C)Cc1nc(C(=O)NC2(c3ccc(-c4cncn(C)c4=O)cc3)CC2)ncc1Cl [Compound 6]	56 nM
CC(C)n1cncc(-c2ccc(C3(NC(=O)c4ncc5cnn(C(C)C)c5n4)CC3)c(F)c2F)c1=O [Compound 93]	35 nM
Cn1cncc(-c2ccc(C3(NC(=O)c4noc(Cc5ccccc5)n4)CC3)cc2)c1=O [Compound 9]	37 nM
Cn1cncc(-c2ccc(C3(NC(=O)c4nnc(Cc5c(F)cccc5F)[nH]4)CC3)cc2)c1=O [Compound 18]	38 nM
CC(C)n1cncc(-c2ccc(C3(NC(=O)c4ncc5cnn(CC6CCC6)c5n4)CC3)cc2)c1=O [Compound 62]	21 nM
CC(C)n1ncc2cnc(C(=O)NC3(c4ccc(-c5cncn(CC(F)(F)F)c5=O)cc4)CC3)nc21 [Compound 38]	48 nM
CC(C)n1ncc2cnc(C(=O)NC3(c4ccc(-c5cncn(CC6CC6)c5=O)c(F)c4)CC3)nc21 [Compound 75]	51 nM
CC(C)n1ncc2cnc(C(=O)NC3(c4ccc(-c5cncn([C@H](C)C6CC6)c5=O)cc4)CC3)nc21 [Compound 84, (R)—N-(1-(4-(1-(1-cyclopropylethyl)-6-oxo-1,6-dihydropyrimidin-5-yl)phenyl)cyclopropyl)-1-i-propyl-1H-pyrazolo[3,4-d]pyrimidine-6-carboxamide]	45 nM
Cn1cncc(-c2ccc(C3(NC(=O)c4nc5n(n4)[C@@H](c4ccccc4)CC5)CC3)cc2)c1=O [Compound 54, (R)—N-(1-(4-(1-methyl-6-oxo-1,6-dihydropyrimidin-5-yl)phenyl)cyclopropyl)-5-phenyl-6,7-dihydro-5H-pyrrolo[1,2-b][1,2,4]triazole-2-carboxamide]	27 nM
O=C(NC1(c2ccc(-c3cncn(CC4CC4)c3=O)cc2)CC1)c1ncc2cnn(CC3CC3)c2n1 [Compound 64]	17 nM
CC(C)n1ncc2cnc(C(=O)NC3(c4ccc(-c5cncn([C@H](C)C(F)(F)F)c5=O)cc4)CC3)nc21 [Compound 39]	59 nM
CC(C)n1ncc2cnc(C(=O)NC3(c4ccc(-c5cncn(C6(C)CCC6)c5=O)cc4)CC3)nc21 [Compound 79]	21 nM
CC(C)n1ncc2cnc(C(=O)NC3(c4ccc(-c5cncn(C6COC6)c5=O)cc4)CC3)nc21 [Compound 41]	61 nM
CC(C)n1ncc2cnc(C(=O)NC3(c4ccc(-c5cncn(C)c5=O)cc4)CC3)nc21 [Compound 1, 1-isopropyl-N-(1-(4-(1-methyl-6-oxo-1,6-dihydropyrimidin-5-yl)phenyl)cyclopropyl)-1H-pyrazolo[3,4-d]pyrimidine-6-carboxamide]	28 nM
CC(C)n1ncc2cnc(C(=O)NC3(c4ccc(-c5cncn([C@@H]6C[C@@H]6F)c5=O)cc4)CC3)nc21 [Compound 69]	21 nM
CC(C)n1ncc2cnc(C(=O)NC3(c4ccc(-c5cncn(C)c5=O)cc4F)CC3)nc21 [Compound 26]	22 nM
CC(C)Cc1nc(C(=O)NC2(c3ccc(-c4cncn(C(C)C)c4=O)cc3)CC2)ncc1Cl [Compound 22]	55 nM
CC(C)n1cncc(-c2ccc(C3(NC(=O)c4ncc5cnn(C(C)C)c5n4)CC3)c(F)c2)c1=O [Compound 34]	65 nM
CC(C)n1ncc2cnc(C(=O)NC3(c4ccc(-c5cncn([C@H]6C[C@H](F)C6)c5=O)cc4)CC3)nc21 [Compound 87, N-(1-(4-(1-(trans-3-fluorocyclobutyl)-6-oxo-1,6-dihydropyrimidin-5-yl)phenyl)cyclopropyl)-1-i-propyl-1H-pyrazolo[3,4-d]pyrimidine-6-carboxamide]	41 nM
CC[C@@H](C)n1cncc(-c2ccc(C3(NC(=O)c4ncc5cnn(C(C)C)c5n4)CC3)cc2)c1=O [Compound 44]	37 nM
